According to patent publication US20020137929A1, “1 - (3-heterocyclylphenyl) isothiourea, -isourea, -guanidine and -amidine herbicidal agents” (Intellectual Property Department, BASF Aktiengesellschaft, priority 1998, published 2002):

Assays:
MOOVA (Monochoria) = assay: Postemergence weed control under flooded paddy conditions; format: in vivo, Monochoria vaginalis; details: postemergence weeds
In short: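 Injury ratings (0–9 scale covering stand, vigor, malformation, size, chlorosis and overall appearance versus control) were made three to four weeks after treatment. Test material, about 0.0313 to 0.500 kg/ha a.i. in 50/50 v/v aqueous/acetone, was added to flood water 1.5 to 3 cm deep over 3 to 5 cm weeds and 1.5 to 2.5 leaf rice.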

[1] = system: ECHORC (Watergrass (Calif.)); assay: Preemergence weed control under flooded paddy conditions; format: in vivo, Echinochloa oryzoides; details: rated 3-4 weeks after treatment
In short: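 First, seeds or propagules go into the top 0.5 cm of silt loam; next, water is held 1.5 to 3 cm over the soil; then compound (50/50 acetone/water) is pipetted into it at about 0.0313 to 0.500 kg/ha; finally plants are rated visually 0-9 after three to four weeks.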

ORYSAT (Rice, Tebonnet) = assay: Preemergence herbicidal evaluation; format: in vivo, Oryza sativa, (L.) Tebonnet; details: rated 4-5 weeks after treatment; for ORYSAT rating: preemergence, 0-9 scale
In short: (§1)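 Sown cups got a single aqueous acetone spray of test compound (roughly 0.0156–0.500 kg/ha) before seedlings emerged. Evaluation, 4–5 weeks on, used a 0–9 visual scale covering plant stand, vigor, size, malformation, chlorosis and general appearance compared with controls.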

ECHCG (Barnyardgrass) = assay: Postemergence herbicidal evaluation; format: in vivo, Echinochloa crus-galli; details: for ECHCG herbicidal rating / herbicidal rating ECHCG: postemergence
In short: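 Two-week-old seedlings sprayed with compound in 50/50 acetone/water plus 0.5% TWEEN 20, at about 0.0156 to 0.500 kg/ha, nozzle at 40 psi. Kept in greenhouse; rated visually 4-5 weeks after treatment on a 0-9 scale versus control, repeat tests averaged.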

CYPSE (Flatsedge) = assay: Preemergence weed control under flooded paddy conditions; format: in vivo, Cyperus serotinus; details: rated 3-4 weeks after treatment
In short: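 Silt loam, seeds in top 0.5 cm; flood held 1.5-3 cm; test cpd as acetone/water 50/50 into flood water, ~0.0313-0.500 kg/ha a.i.; greenhouse 3-4 wk; visual 0-9 score vs control.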

[2] = system: CHEAL (Lambsquarters, Common); assay: Preemergence herbicidal evaluation; format: in vivo, Chenopodium album; details: rated 4-5 weeks after treatment; for CHEAL rating: preemergence, 0-9 scale
In short: as §1

[3] = Rate 0.0313 kg/ha, rated 3 to 4 weeks after treatment
[4] = Rate 0.0625 kg/ha, rated 3 to 4 weeks after treatment
[5] = Rate 0.1250 kg/ha, rated 3 to 4 weeks after treatment
[6] = Rate 0.2500 kg/ha, rated 3 to 4 weeks after treatment

Structure (SMILES)	Preemergence herbicidal rating ORYSAT (ORYSAT (Rice, Tebonnet); rate 0.0625 kg/ha)	Preemergence herbicidal rating ORYSAT (ORYSAT (Rice, Tebonnet); rate 0.1250 kg/ha)	Preemergence herbicidal rating ORYSAT (ORYSAT (Rice, Tebonnet); rate 0.2500 kg/ha)	Preemergence herbicidal rating CHEAL ([2]; rate 0.0625 kg/ha)	Preemergence herbicidal rating CHEAL ([2]; rate 0.1250 kg/ha)	Preemergence herbicidal rating CHEAL ([2]; rate 0.2500 kg/ha)	Herbicidal rating MOOVA (MOOVA (Monochoria); [3])	Herbicidal rating MOOVA (MOOVA (Monochoria); [4])	Herbicidal rating MOOVA (MOOVA (Monochoria); [5])	Herbicidal rating MOOVA (MOOVA (Monochoria); [6])	ECHORC herbicidal effect rating ([1]; 0.0313 kg/ha)	ECHORC herbicidal effect rating ([1]; 0.0625 kg/ha)	ECHORC herbicidal effect rating ([1]; 0.1250 kg/ha)	ECHORC herbicidal effect rating ([1]; 0.2500 kg/ha)	CYPSE herbicidal effect rating (CYPSE (Flatsedge); 0.0313 kg/ha)	CYPSE herbicidal effect rating (CYPSE (Flatsedge); 0.0625 kg/ha)	CYPSE herbicidal effect rating (CYPSE (Flatsedge); 0.1250 kg/ha)	CYPSE herbicidal effect rating (CYPSE (Flatsedge); 0.2500 kg/ha)	Preemergence herbicidal rating ORYSAT (ORYSAT (Rice, Tebonnet); rate 0.0156 kg/ha)	Preemergence herbicidal rating ORYSAT (ORYSAT (Rice, Tebonnet); rate 0.0313 kg/ha)	other results
CCOC(=O)CN1C(=O)C(Cc2ccccc2OC(C)C(=O)OC)SC1=Nc1cc(-n2c(=O)cc(C(F)(F)F)n(C)c2=O)c(F)cc1Cl (stereo not drawn) [Compound 50, 2-{{2-Chloro-5-[3,6-dihydro-3-methyl-2,6-dioxo-4-(trifluoromethyl)-1(2H)-pyrimidinyl]-4-fluoro-phenyl}imino}-5-(o-hydroxybenzyl)-4-oxo-3-thiazolidineacetic acid, ethyl ester, ester with methyl lactate]	0.0	0.0	0.0	0.0	9.0	9.0															Herbicidal rating MOOVA (MOOVA (Monochoria); rate 0.0313 kg/ha, 3-4 weeks after treatment): 0.0; Herbicidal rating MOOVA (MOOVA (Monochoria); rate 0.0625 kg/ha, 3-4 weeks after treatment): 0.0; Herbicidal rating MOOVA (MOOVA (Monochoria); rate 0.1250 kg/ha, 3-4 weeks after treatment): 3.0; Herbicidal rating MOOVA (MOOVA (Monochoria); rate 0.2500 kg/ha, 3-4 weeks after treatment): 7.0; Herbicidal rating ECHORC ([1]; 0.0313 kg/ha): 4.0; Herbicidal rating ECHORC ([1]; 0.0625 kg/ha): 7.0; Herbicidal rating ECHORC ([1]; 0.1250 kg/ha): 7.0; Herbicidal rating ECHORC ([1]; 0.2500 kg/ha): 7.0; Postemergence herbicidal rating ECHCG (ECHCG (Barnyardgrass); Rate 0.0156 kg/ha): 0.0; Postemergence herbicidal rating ECHCG (ECHCG (Barnyardgrass); Rate 0.0313 kg/ha): 0.0; Postemergence herbicidal rating ECHCG (ECHCG (Barnyardgrass); Rate 0.0625 kg/ha): 2.0; Herbicidal rating CYPSE (CYPSE (Flatsedge); 0.0313 kg/ha): 0.0; Herbicidal rating CYPSE (CYPSE (Flatsedge); 0.0625 kg/ha): 0.0; Herbicidal rating CYPSE (CYPSE (Flatsedge); 0.1250 kg/ha): 0.0; Herbicidal rating CYPSE (CYPSE (Flatsedge); 0.2500 kg/ha): 0.0
CCOC(=O)CN1C(=O)C(CC(=O)OC(C)C(=O)OCC)S/C1=N/c1cc(-n2c(=O)cc(C(F)(F)F)n(C)c2=O)c(F)cc1Cl (stereo not drawn) [Compound 87]							9.0	9.0	9.0	9.0	0.0	0.0	2.0	3.0	0.0	0.0	5.0	5.0			Herbicidal rating MOOVA (MOOVA (Monochoria); Rate 0.5000 kg/ha, rated 3 to 4 weeks after treatment): 9.0; ECHORC herbicidal effect rating ([1]; 0.5000 kg/ha): 3.0; ORYSAT rating (ORYSAT (Rice, Tebonnet); 0.1250 kg/ha): 0.0; ORYSAT rating (ORYSAT (Rice, Tebonnet); 0.2500 kg/ha): 0.0; ORYSAT rating (ORYSAT (Rice, Tebonnet); 0.5000 kg/ha): 0.0; ECHCG herbicidal rating (ECHCG (Barnyardgrass); rate 0.0156 kg/ha): 0.0; ECHCG herbicidal rating (ECHCG (Barnyardgrass); rate 0.0313 kg/ha): 0.0; ECHCG herbicidal rating (ECHCG (Barnyardgrass); rate 0.0625 kg/ha): 2.0; ECHCG herbicidal rating (ECHCG (Barnyardgrass); rate 0.1250 kg/ha): 9.0; ECHCG herbicidal rating (ECHCG (Barnyardgrass); rate 0.2500 kg/ha): 9.0; CYPSE herbicidal effect rating (CYPSE (Flatsedge); 0.5000 kg/ha): 5.0; CHEAL rating ([2]; 0.1250 kg/ha): 4.0; CHEAL rating ([2]; 0.2500 kg/ha): 9.0; CHEAL rating ([2]; 0.5000 kg/ha): 9.0
Cn1c(C(F)(F)F)cc(=O)n(-c2cc(N=C3SCC(=O)N3CC(=O)OCC#N)c(Cl)cc2F)c1=O [Compound 109, 2-{{2-Chloro-5-[3,6-dihydro-3-methyl-2,6-dioxo-4-(trifluoromethyl)-1(2H)-pyrimidinyl]-4-fluorophenyl}imino}-4-oxo-3-thiazolidineacetic acid, ester with glycolonitrile]	2.0	4.0	5.0	9.0	9.0	9.0	2.0	4.0	9.0	9.0	9.0	9.0	9.0	9.0	4.5	5.5	9.0	6.5	0.0	1.0	Preemergence herbicidal rating ORYSAT (ORYSAT (Rice, Tebonnet); rate 0.5000 kg/ha): 6.0; herbicidal rating ECHCG (ECHCG (Barnyardgrass); rate 0.0158 kg/ha): 0.0; herbicidal rating ECHCG (ECHCG (Barnyardgrass); rate 0.0315 kg/ha): 3.0; herbicidal rating ECHCG (ECHCG (Barnyardgrass); rate 0.0630 kg/ha): 3.0; Preemergence herbicidal rating CHEAL ([2]; rate 0.0156 kg/ha): 9.0; Preemergence herbicidal rating CHEAL ([2]; rate 0.0313 kg/ha): 9.0; Preemergence herbicidal rating CHEAL ([2]; rate 0.5000 kg/ha): 9.0
C=CCN1C(=O)C(CC(=O)O)SC1=Nc1cc(-n2c(=O)cc(C(F)(F)F)n(C)c2=O)c(F)cc1Cl (stereo not drawn) [Compound 62, 3-Allyl-2-{{2-chloro-5-[3,6-dihydro-3-methyl-2,6-dioxo-4-(trifluoromethyl)-1(2H)-pyrimidinyl]-4-fluorophenyl}imino}-4-oxo-5-thiazolidineacetic acid]	1.0	4.0	6.0	9.0	9.0	9.0	4.0	9.0	9.0	9.0	0.0	0.0	2.0	5.0	0.0	0.0	0.0	0.0	0.0	0.0	Postemergence herbicidal rating ECHCG (ECHCG (Barnyardgrass); Rate 0.0158 kg/ha): 4.0; Postemergence herbicidal rating ECHCG (ECHCG (Barnyardgrass); Rate 0.0315 kg/ha): 6.0; Postemergence herbicidal rating ECHCG (ECHCG (Barnyardgrass); Rate 0.0630 kg/ha): 7.0; Preemergence herbicidal rating CHEAL ([2]; rate 0.0156 kg/ha): 7.0; Preemergence herbicidal rating CHEAL ([2]; rate 0.0313 kg/ha): 9.0
